Values belong to the compound of their own block, whether it stands above or below them.
What was measured:
Type in all cases: cell-based
[1] = Colony forming assay for compound 2 and 38 (treatment and 5 days recovery); conditions: treatment and recovery (5 days)
[2] = system: U20S cells; test: Cell proliferation assay (Cell Titre Glow) in U20S cells
Method: (§1) Method: Indicated cells were plated at 3000 cells/80 μl in each well. TEAD4 depletion was performed by reverse transfection with 20 nM of Dharmacon smart pool NTsiRNA and TEAD4 siRNA in 0.25 ul of lipofectamine mixed with 25% of OPTIMEM. After 18 hrs of transfection, cells were recovered for 24 hrs in fresh DMEM medium. Cells were treated with indicated compounds at different doses. After 48 hrs of dosing cells were recovered in fresh medium for 3 days. Cell Titre Glow (CTG) assay was used.
(§2) U20S cells stably expressing GFP fused TEAD4 and GFP alone were treated with different doses of CPD10 and analysed for cellular proliferation. […] Further we used cell lines expressing higher level of TEAD4 and performed depletion experiment followed by comparative sensitivity analysis.

[3] = biological target: T1, GFP-TEAD4 (Homo sapiens, UniProt Q15561); test: TEAD4 localization imaging in U20S cells stably expressing GFP-TEAD4; conditions: 10 μM, 18 hrs
T1 construct: expressed in transfected cells
T1 sequence (Q15561 whole entry): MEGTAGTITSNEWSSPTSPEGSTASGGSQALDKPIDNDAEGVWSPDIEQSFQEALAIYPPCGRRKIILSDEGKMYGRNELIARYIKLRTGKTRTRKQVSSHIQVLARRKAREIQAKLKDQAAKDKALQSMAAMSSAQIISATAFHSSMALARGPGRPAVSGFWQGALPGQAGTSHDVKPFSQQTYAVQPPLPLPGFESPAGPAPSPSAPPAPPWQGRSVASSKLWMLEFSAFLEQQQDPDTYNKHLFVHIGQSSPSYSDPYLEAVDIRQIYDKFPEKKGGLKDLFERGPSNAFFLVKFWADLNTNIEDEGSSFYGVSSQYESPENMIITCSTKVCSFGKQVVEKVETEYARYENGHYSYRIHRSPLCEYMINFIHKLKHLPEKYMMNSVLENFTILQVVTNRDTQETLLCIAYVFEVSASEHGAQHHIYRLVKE
Method: Methods: U20S cells stably expressing GFP-TEAD4 were seeded at 50,000 cell densities onto glass cover slips in six well plates. Next day, cells were either DMSO treated or treated with indicated compounds at 10 μM concentrations. After 18 hrs of treatment cells were washed and fixed in 4% formaldehyde for 20 minutes. Blocking was done in 3% BSA dissolved in PBST for 1 hour. Cell were incubated with indicated antibodies for overnight in a cold room. Next day, after washing 3× in PBST samples were incubated with respective secondary antibodies for 45 minutes at room temperature. After washing nuclear staining was done with DAPI for 10 minutes. Coverslips were added onto glass slides with the help of mounting medium. After drying, cells were imaged at 63× objective and processed with ZEN x64 blue software.
Result: In DMSO treated control samples we observed very nuclear localized TEAD4 (green) signal, strongly imposed to the DAPI signal. Nuclear and cytoplasmic YAP and TAZ was observed either in DMSO or in compound treated cells.

[4] = system: TEAD transcriptional target genes; test: RT-PCR profiling of YAP-TEAD transcriptional target genes in NCI-H226 cells; conditions: 24 hrs
Method: (§3) Relative quantification of immunoblot signals were quantified with IMAGE J software. Actively growing cells were added with indicated concentrations of CPD10 and CPD13 and cells were collected after 24 hrs. RNA was extracted and cDNA was synthesized. Indicated primer pairs were used for RT-PCR. Relative gene expression was determined by using GAPDH amplification.

[5] = system: NCI-H226 mesothelioma cells; test: Colony forming assay in NCI-H226 mesothelioma cells
Method: (§4) In colony forming assay, indicated cells were plated at 5,000 cells density in 2 ml of DMEM medium. TEAD4 depletion was performed by reverse transfection with 20 nM of Dharmacon smart pool NTsiRNA and TEAD4 siRNA in 2.5 ul of lipofectamine mixed with 25% of OPTIMEM. After 18 hrs of transfection, cells were either DMSO treated or treated with indicated compounds at different doses. After 48 hrs of the treatment cells were recovered in a fresh medium for 4 days. At the end of the experiment cells were Glutaraldehyde fixed and stained in crystal violet solution for 2 hrs. After washing, plates were scanned for image processing.
Colony forming assay was essentially performed as described in previous section.

[6] = biological target: T2, TEAD4 binding to YAP and TAZ (Homo sapiens, UniProt Q15561); test: GFP-TRAP assay to pull down TEAD4 binders in U20S cells expressing GFP fused TEAD4; conditions: U20S cells expressing GFP fused TEAD4, 10 uM
T2 construct: expressed in transfected cells
T2 sequence (Q15561 whole entry, the tested form may be a part): as the sequence (Q15561 whole entry) above
Method: GFP-TRAP assay: To purify TEAD4 binders, GFP-Trap Magnetic Agarose (gtma-100) was used, and assay was performed strictly according to manufacturer's instructions. At the end of the assay, agarose beads were resuspended in 2×LDS lysis buffer, competing amount of DTT was added into it and samples were boiled for 3 minutes. Supernatants were collected and used for immunoblotting.
To determine whether CPD10 or 13 leads downregulation of TEAD4 binding to its transcriptional targets YAP and TAZ, U20S cells stably expressing GFP alone and GFP fused TEAD4 were either mock-treated or treated with indicated doses of CPD10. GFP-TRAP assay was performed to pull down TEAD4 binders, and immunoblotted. As one of the strong binders of the TEAD4, YAP/TAZ protein signal were detected in purified complex. […] The GFP blot indicating the GFP and GFP fused TEAD4 signal in whole cell lysates and purified protein samples (C).

[7] = biological target: T3, YAP-TEAD binding (Homo sapiens, UniProt Q15561); test: Endogenous TEAD4 immunoprecipitation in NCI-H226 mesothelioma cells; conditions: 24 hrs, indicated concentrations
T3 construct: Endogenous TEAD4 IP; endogenous in cells; host or cells: NCI-H226 mesothelioma cells
T3 sequence (Q15561 whole entry): as above
Method: Evaluation of CPD10 and CPD13 in NCI-H226 mesothelioma cell line: Actively growing cells were either DMSO added or treated with indicated concentrations of CPD10 and CPD13 for 24 hrs. Cells were collected in ice-cold PBS and pellets were lysed in IP Lysis Buffer (25 mM Tris-HCl pH 7.4, 150 mM NaCl, 1 mM EDTA, 1% NP-40 and 5% glycerol and competing amount of protease inhibitor). Samples were lysed by sonication, BCA assay was performed and equal concentration of protein were added with TEAD4 antibody (3 ul). After overnight incubation in cold room, samples were added with anti-rabbit magnetic beads to trap the TEAD and binding complex for 2 hrs. Samples were washed 3 times and bound fraction were collected with the help of magnetic stand. Samples were added with 4×LDS, competing amount of DTT, and boiled for 3 minutes. Whole cell lysate (Input) and IP samples were resolved in 8% SDS-PAGE gel and immunoblotted with indicated antibodies.
as §3

[8] = system: TEADs transcriptional target genes; test: RT PCR transcriptional profiling of TEADs target genes in A549 cells; conditions: for NFKB1 relative expression (RT PCR) / c-MYC relative expression (RT PCR): low dose; for YAP/TAZ relative expression (RT PCR): low dose (2.5 μM of CPD10)
Method: Method: A549 cells (at 60% confluency) either mock treated or treated with indicated doses of CPD 10 and CPD13 for 24 hrs. Cells were washed with ice-cold 1×PBS. RNA extraction was performed with Quick-RNA™ miniprep kit (Zymo Research, Cat. No. R1055), strictly according to manufacturer's instructions. Nanodrop quantified 2 μg of RNA samples were used for cDNA synthesis with cDNA Reverse Transcription Kit (Thermo Cat. No. 4368814) strictly according to the manufacturer's instructions. In RT PCR experiment, comparative target gene expression was performed by SYBR™ Green (Thermo Cat. No. 4309155) Master mix. Relative target gene expressions were compared and plotted on Y-Axis.
Result: Relative expression of YAP and TAZ in response to low dose of CPD10 (A) and CPD13 (B) treatment in A549 cells. c-MYC was included as non-transcriptional target of the TEADs. NFKB1 was included as its expression is reciprocal to the YAP/TAZ. Downstream effectors of the TEADs targets (CYR61, AXL, CTGF and ANKRD1) were determined in responses to 2.5, 5 and 10 μM of CPD10 (C) and CPD13 (D).
CPD10 and CPD13 Downregulate the TEADs transcriptional target genes: To determine CPD10 and CPD13 induced relative expression of TEADs target genes, A549 cells were treated with indicated doses for 24 hrs. Transcriptional profiling was performed with respective primer pairs. […] Further we tested the expression of one of the strong non hippo transcription factor, the C-Myc. As expected, c-MYC expression was not affected in response to CPD10 treatment (A). […] C-Myc expression was not affected. […] An Increase of NFKB1 expression is consistent with significant downregulation of YAP expression in response to CPD13 treatment (B). To determine the state of TEADs transcriptional target genes at higher concentrations, A549 cells were treated with indicated doses of compounds and analyzed for the expression of CYR61, AXL, CTGF and ANKRD1.

[9] = system: U20S cells; test: Colony forming assay in U20S cells depleted of or overexpressing TEAD4; conditions: for TEAD4 dependence of cellular sensitivity (siRNA depletion, colony forming): U20S cells, control siRNA vs TEAD4 siRNA
Method: as §4
In line with proliferation assay we performed colony forming assay in U20S cells either depleted or overexpressing TEAD4. Cells stably expressing GFP and GFP fused TEAD4 were also included in this assay.

[10] = system: hippo signaling target proteins (TEAD4, Pan-TEADs, YAP, TAZ); test: Immunoblotting of hippo signaling target proteins in A549 whole cell lysates; conditions: A549 cells, 24 hrs; for wild type p53 expression (immunoblot): same protein samples
Method: Method: A549 cells (at 60% confluency) either mock treated or treated with indicated doses of CPD10 and CPD13 for 24 hrs. Cells were washed with ice-cold 1×PBS and lysed in protein lysis buffer. Whole cell lysates were quantified by Pierce™ BCA Protein assay kit (Catalog number: 23225) and denatured in 4×LDS buffer (Thermo catalog number: NP0007) added with competing amount of DTT followed by boiling for 3 minutes. Samples were resolved in 8% of SDS-PAGE, transferred onto nitrocellulose membrane and immunoblotting was performed with indicated antibodies.
Result: To determine the CPD10 and CPD13 mediated expression of hippo signaling target proteins in A549 cells, whole cell lysates from mock treated and compounds treated cells were immunoblotted to determine the level of TEAD4, Pan-TEADs, YAP, TAZ proteins. […] Similar to CPD10, CPD13 downregulate YAP expression at 10 Um (B). To determine the level of other transcriptional targets, we tested the p53 protein in same sets of protein samples. […] GAPDH was used as loading control.

[11] = system: A549 cells; test: Cell proliferation assay (Cell Titre Glow) in A549 cells with TEAD4 depletion; conditions: TEAD4 depleted A549 cells, compared with NTsi treated cells
Method: as §1, §2

[12] = system: CTGF and CYR61 transcripts; test: RT-qPCR of Hippo-dependent gene transcripts in MCF10
Method: (§5) MGH-CP1 (positive control) and Cpd 13 were tested on MCF10 and A549.

[13] = system: CTGF and CYR61 transcripts; test: RT-qPCR of Hippo-dependent gene transcripts in A549
Method: as §5

Structure (SMILES): C=CS(=O)(=O)CCC(=O)Nc1cc(-c2ccccc2)cnc1C [CPD2]
TEAD dependence of induced cell sensitivity (colony forming assay) [1]: not TEAD dependent

cytoplasmic localization of the TEAD4 protein [3]: induction of cytoplasmic localization | nuclear TEAD4 presence [3]: didn't diminish | YAP/TAZ binding to TEAD4 (GFP-TRAP pull down, immunoblot) [6]: significantly reduced | YAP-TEAD binding (TEAD4 IP, immunoblot) [7]: disrupted to a great extent
Structure (SMILES): C=CS(=O)(=O)CCC(=O)Nc1nn(-c2ccccc2)cc1C [CPD10]
cellular proliferation sensitivity ([2]; U20S cells expressing GFP alone, low dose): didn't display sensitivity | cellular proliferation sensitivity ([2]; U20S cells overexpressing GFP-TEAD4, below 5 uM): higher sensitivity | TEAD transcriptional target genes expression (RT-PCR) [4]: repression | colony forming sensitivity [5]: strongly sensitizes | ANKRD1 relative expression (RT PCR) ([8]; 24 hrs, 10 μM): significantly reduced | AXL relative expression (RT PCR) ([8]; 24 hrs, 2.5, 5 and 10 μM): suppressed at 2.5 μM and subsequently downregulated in a dose dependent manner | CTGF relative expression (RT PCR) ([8]; 24 hrs, 2.5, 5 and 10 μM): suppressed at 2.5 μM and subsequently downregulated in a dose dependent manner | CYR61 relative expression (RT PCR) ([8]; 24 hrs, 2.5, 5 and 10 μM): suppressed at 2.5 μM and subsequently downregulated in a dose dependent manner | NFKB1 relative expression (RT PCR) ([8]; 24 hrs): minor increase | c-MYC relative expression (RT PCR) ([8]; 24 hrs): not affected | YAP/TAZ relative expression (RT PCR) ([8]; 24 hrs): downregulated | colony forming sensitivity ([9]; U20S cells overexpressing GFP fused TEAD4, in comparison to GFP alone): very high sensitivity | colony forming sensitivity ([9]; U20S cells treated with control siRNA, unlike TEAD4 depleted cells, 2.5 μM): very high sensitivity | TEAD4 dependence of cellular sensitivity (siRNA depletion, colony forming) [9]: TEAD4 dependent | TAZ expression (immunoblot) ([10]; 10 Um): significantly reduced | TEAD4 and pan-TEAD expression (immunoblot) ([10]; highest concentration): reduced | YAP expression (immunoblot) ([10]; indicated doses): downregulated in a dose dependent manner | wild type p53 expression (immunoblot) [10]: didn't resulted in change | cellular proliferation sensitivity [11]: lower sensitivity

cytoplasmic localization of the TEAD4 protein [3]: induction of cytoplasmic localization | nuclear TEAD4 presence [3]: didn't diminish | YAP-TEAD binding (TEAD4 IP, immunoblot) [7]: disrupted to a great extent
Structure (SMILES): C=CS(=O)(=O)CCC(=O)Nc1nc(C2CCCCC2)c(C)s1 [CPD13]
CTGF and CYR61 transcripts (RT-qPCR) [12]: dose dependent decrease | TEAD transcriptional target genes expression (RT-PCR) [4]: repression | colony forming sensitivity [5]: strongly sensitizes | CTGF and CYR61 transcripts (RT-qPCR) [13]: dose dependent decrease | ANKRD1 relative expression (RT PCR) ([8]; 24 hrs, 2.5, 5 and 10 μM): further downregulated in a dose dependent manner | AXL relative expression (RT PCR) ([8]; 24 hrs, 2.5, 5 and 10 μM): further downregulated in a dose dependent manner | CTGF relative expression (RT PCR) ([8]; 24 hrs, 2.5, 5 and 10 μM): further downregulated in a dose dependent manner | CYR61 relative expression (RT PCR) ([8]; 24 hrs, 2.5, 5 and 10 μM): further downregulated in a dose dependent manner | NFKB1 relative expression (RT PCR) ([8]; 24 hrs): Increase | c-MYC relative expression (RT PCR) ([8]; 24 hrs): not affected | YAP/TAZ relative expression (RT PCR) ([8]; 24 hrs): significant reduction | colony forming sensitivity ([9]; TEAD4 depleted cells, unlike control siRNA treated cells): less sensitive | TEAD4 dependence of cellular sensitivity (siRNA depletion, colony forming) [9]: TEAD4 dependent | YAP expression (immunoblot) ([10]; 10 Um): downregulate | wild type p53 expression (immunoblot) [10]: didn't resulted in change

Structure (SMILES): C=CS(=O)(=O)CCC(=O)Nc1cnn(-c2ccccc2)n1 [CPD38]
TEAD dependence of induced cell sensitivity (colony forming assay) [1]: not TEAD dependent

Source: patent US20250197355A1, “TEAD Targeting Compounds and Methods Thereof” (Agency for Science, Technology and Research, priority 2022, published 2025)
